Like-named read-outs stand apart in the source and are kept apart here.
Tested on: test plant species
Assay: Post-emergent herbicidal activity test (greenhouse, foliar spray, visual growth reduction)
Format: in vivo
Conditions: post-emergence, 336 h, 140 g ai/ha
Protocol: Post-emergent Test: Seeds or nutlets of the desired test plant species were planted in Sun Gro Metro-Mix® 360 planting mixture, which typically has a pH of 6.0 to 6.8 and an organic matter content of about 30 percent, in plastic pots with a surface area of 64 square centimeters. In some aspects, to ensure good germination and healthy plants, a fungicide treatment and/or other chemical or physical treatment was applied. The plants were grown for 7-21 d in a greenhouse with an approximate 15 h photoperiod which was maintained at 23-29° C. during the day and 22-28° C. during the night. Nutrients and water were added on a regular basis and supplemental lighting was provided with overhead metal halide 1000-Watt lamps as necessary. Plants were used for testing when they reached the first or second true leaf stage. A weighed amount, determined by the highest rate to be tested, of each test compound was placed in a 25 mL glass vial and was dissolved in 4 mL of a 97:3 v/v mixture of acetone and DMSO to obtain concentrated stock solutions. […] The concentrated stock solutions obtained were diluted with 20 mL of an aqueous mixture containing acetone, water, isopropyl alcohol, DMSO, […] crop oil concentrate, and X-77 surfactant in a 48.5:39:10:1.5:1.0:0.02 v/v ratio to obtain spray solutions containing the application rate. Compound requirements are based upon a 12 mL application volume at a rate of 187 liters per hectare (L/ha). Formulated compounds were applied to the plant material with an overhead Mandel track sprayer equipped with […] nozzles calibrated to deliver 187 L/ha over an application area of 0.64 square meters at a spray height of 18 inches (43 cm) above the average plant canopy height. Control plants were sprayed in the same manner with the solvent blank. The treated plants and control plants were placed in a greenhouse as described above and watered by subirrigation to prevent wash-off of the test compounds. After 14 d, the condition of the test plants as compared with that of the nontreated and control plants was determined visually and scored on a scale of 0 to 100 percent where 0 corresponds to no injury and 100 corresponds to complete control. In the reporting of the results, Table A: Percent Growth Reduction Conversion Table was used.

[1] = ALOMY: blackgrass (Alopecurus myosuroides), 14 days after application, read-out: Visual Growth Reduction (%) 14 Days After Application, ALOMY
[2] = AMARE: redroot pigweed (Amaranthus retroflexus), 14 days after application, read-out: Visual Growth Reduction (%) 14 Days After Application, AMARE
[3] = AVEFA: wild oat (Avena fatua), 14 days after application, read-out: Visual Growth Reduction (%) 14 Days After Application, AVEFA
[4] = CHEAL: lambsquarters (Chenopodium album), 14 days after application, read-out: Visual Growth Reduction (%) 14 Days After Application, CHEAL
[5] = CIRAR: canada thistle (Cirsium arvense), 14 days after application, read-out: Visual Growth Reduction (%) 14 Days After Application, CIRAR
[6] = CYPES: yellow nutsedge (Cyperus esculentus), 14 days after application, read-out: Visual Growth Reduction (%) 14 Days After Application, CYPES
[7] = DIGSA: crabgrass (Digitaria sanguinalis), 14 days after application, read-out: Visual Growth Reduction (%) 14 Days After Application, DIGSA
[8] = barnyardgrass (Echinochloa crus-galli), 14 Days After Application, read-out: Visual Growth Reduction (%) ECHCG
[9] = giant foxtail (Setaria faberi), 14 Days After Application, read-out: Visual Growth Reduction (%) SETFA
[10] = ivy-leaf morning glory (Ipomoea hederacea), 14 Days After Application, read-out: Visual Growth Reduction (%) IPOHE
[11] = johnsongrass (Sorghum vulgare), 14 Days After Application, read-out: Visual Growth Reduction (%) SORVU
[12] = kochia (Bassia scoparia), 14 Days After Application, read-out: Visual Growth Reduction (%) KCHSC
[13] = rice (Oryza sativa), 14 Days After Application, read-out: Visual Growth Reduction (%) ORYSA
[14] = wheat, spring (Triticum aestivum), 14 Days After Application, read-out: Visual Growth Reduction (%) TRZAS
[15] = common chickweed (Stellaria media), 14 Days After Application, read-out: Visual Growth Reduction (%) STEME

Compound | pest or weed control at 140 g/ha [1] [%] | pest or weed control at 140 g/ha [2] [%] | pest or weed control at 140 g/ha [3] [%] | pest or weed control at 140 g/ha [4] [%] | pest or weed control at 140 g/ha [5] [%] | pest or weed control at 140 g/ha [6] [%] | pest or weed control at 140 g/ha [7] [%] | pest or weed control at 140 g/ha [8] [%] | pest or weed control at 140 g/ha [9] [%] | pest or weed control at 140 g/ha [10] [%] | pest or weed control at 140 g/ha [11] [%] | pest or weed control at 140 g/ha [12] [%] | pest or weed control at 140 g/ha [13] [%] | pest or weed control at 140 g/ha [14] [%] | pest or weed control at 140 g/ha [15] [%]
COC(=O)c1nc(-c2ccc(C(F)(F)F)cc2Cl)cc(C#N)c1Cl [F11, Methyl 3-chloro-6-(2-chloro-4-(trifluoromethyl)phenyl)-4-cyanopicolinate] | 0 to 29 | 0 to 29 | 0 to 29 | 0 to 29 | 30 to 44 | 0 to 29 | 0 to 29 | 0 to 29 | 0 to 29 | 30 to 44 | 0 to 29 | 0 to 29 | 0 to 29 | 0 to 29 | 
COC(=O)c1nc(-c2ccc(C(F)(F)F)cc2F)ccc1Cl [F12, Methyl 3-chloro-6-(2-fluoro-4-(trifluoromethyl)phenyl)picolinate] | 0 to 29 | 85 to 94 | 0 to 29 | 95 to 100 | 60 to 74 | 60 to 74 | 75 to 84 | 0 to 29 | 0 to 29 | 95 to 100 | 75 to 84 | 0 to 29 | 0 to 29 | 0 to 29 | 0 to 29
COC(=O)c1nc(-c2ccc(C3CC3(F)F)cc2Cl)ccc1Cl (centres unmarked) [F13, methyl 3-chloro-6-(2-chloro-4-(2,2 difluorocyclopropyl)phenyl) picolinate] | 0 to 29 | 75 to 84 | 0 to 29 | 85 to 94 | 85 to 94 | 0 to 29 | 0 to 29 | 0 to 29 | 0 to 29 | 95 to 100 | 60 to 74 | 60 to 74 | 0 to 29 | 0 to 29 | 0 to 29
COC(=O)c1nc(-c2ccc(C(C)F)cc2Cl)ccc1Cl (centres unmarked) [F14, methyl 3-chloro-6-(2-chloro-4-(1-fluoroethyl)phenyl)-picolinate] | 0 to 29 | 0 to 29 | 0 to 29 | 85 to 94 | 0 to 29 | 0 to 29 | 0 to 29 | 0 to 29 | 0 to 29 | 45 to 59 | 0 to 29 | 85 to 94 | 0 to 29 | 0 to 29 | 0 to 29
COC(=O)c1nc(-c2ccc(C3CC3)cc2Cl)ccc1Cl [F15, methyl 3-chloro-6-(2-chloro-4-cyclopropylphenyl)picolinate] | 0 to 29 | 30 to 44 | 0 to 29 | 45 to 59 | 0 to 29 | 30 to 44 | 0 to 29 | 0 to 29 | 0 to 29 | 95 to 100 | 0 to 29 | 0 to 29 | 0 to 29 | 0 to 29 | 0 to 29
C#Cc1cc(C(F)(F)F)ccc1-c1ccc(Cl)c(C(=O)OC)n1 [F16, methyl 3-chloro-6-(2-ethynyl-4-(trifluoromethyl)phenyl) picolinate] | 0 to 29 | 30 to 44 | 0 to 29 | 0 to 29 | 30 to 44 | 0 to 29 | 0 to 29 | 0 to 29 | 0 to 29 | 95 to 100 | 75 to 84 | 0 to 29 | 0 to 29 | 0 to 29 | 0 to 29
COC(=O)c1nc(-c2ccc(C(F)(F)F)cc2C(F)(F)F)ccc1Cl [F17, Methyl 6-(2,4-bis(trifluoromethyl)phenyl)-3-chloropicolinate] | 0 to 29 | 60 to 74 | 0 to 29 | 60 to 74 | 0 to 29 | 0 to 29 | 45 to 59 | 0 to 29 | 0 to 29 | 95 to 100 | 85 to 94 | 0 to 29 | 0 to 29 | 0 to 29 | 0 to 29
C#Cc1ccc(-c2ccc(Cl)c(C(=O)OC)n2)c(Cl)c1 [F18, Methyl 3-chloro-6-(2-chloro-4-ethynylphenyl) picolinate] | 0 to 29 | 0 to 29 | 0 to 29 | 0 to 29 | 0 to 29 | 0 to 29 | 0 to 29 | 0 to 29 | 0 to 29 | 0 to 29 | 0 to 29 | 0 to 29 | 0 to 29 | 0 to 29 | 0 to 29
COC(=O)c1nc(-c2ccc(C(F)F)cc2Cl)ccc1Cl [F19, methyl 3-chloro-6-(2-chloro-4-(difluoromethyl)phenyl)picolinate] | 0 to 29 | 95 to 100 | 0 to 29 | 95 to 100 | 95 to 100 | 30 to 44 | 0 to 29 | 0 to 29 | 0 to 29 | 95 to 100 | 30 to 44 | 85 to 94 | 0 to 29 | 0 to 29 | 0 to 29
COC(=O)c1nc(-c2ccc(/C=N/N(C)C)cc2Cl)ccc1Cl [F20, methyl 3-chloro-6-(2-chloro-4-((2,2-dimethylhydrazono)methyl)phenyl) picolinate] | 0 to 29 | 0 to 29 | 0 to 29 | 0 to 29 | 0 to 29 | 0 to 29 | 0 to 29 | 0 to 29 | 0 to 29 | 60 to 74 | 0 to 29 | 0 to 29 | 0 to 29 | 0 to 29 | 0 to 29
